Source: patent publication US8802597B2, “Herbicidal pyrimidines” (E I du Pont de Nemours and Company, priority 2003, dated 2014)

Experiments:
[1] = test system: duck salad (Heteranthera limosa); experiment: Test C flooded paddy test; assay type: in vivo; details: Flood, scale 0 to 100
Method in brief: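 Response scores reflect visual evaluation after 12 to 14 days in the greenhouse, with 0 for no effect and 100 for complete control relative to untreated plants. Treatment was made at the 2-leaf stage in a flooded paddy setting, and a dash denotes no test result.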

[2] = test system: ducksalad (Heteranthera limosa); experiment: Test E flooded paddy water application; assay type: in vivo; details: Flood, 21 days, scale 0 to 100 (0 no effect, 100 complete control); for Plant response rating, Ducksalad: 16 g ai/ha
Method in brief: (§1)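 Greenhouse pots of Tama silt loam with weeds and rice at 2.0–2.5-leaf stage, flooded to 3 cm; compounds applied directly into paddy water, depth maintained. Visual rating versus untreated controls after 21 days, 0 (no effect) to 100 (complete control); 29.5/26.7 °C, 16-h photoperiod.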

[3] = test system: late watergrass (Echinochloa oryzicola); experiment: Test E flooded paddy water application; assay type: in vivo; details: Flood, 21 days, scale 0 to 100 (0 no effect, 100 complete control); for Plant response rating, Watergrass, Late: 16 g ai/ha
Method in brief: as §1

[4] = test system: junglerice (Echinochloa colona); experiment: Test E flooded paddy water application; assay type: in vivo; details: Flood, 21 days, scale 0 to 100 (0 no effect, 100 complete control); for Plant response rating, Junglerice: 16 g ai/ha
Method in brief: as §1

[5] = test system: early watergrass (Echinochloa oryzoides); experiment: Test E flooded paddy water application; assay type: in vivo; details: Flood, 21 days, scale 0 to 100 (0 no effect, 100 complete control); for Plant response rating, Watergrass, Early: 16 g ai/ha
Method in brief: as §1

[6] = test system: smallflower umbrella sedge (Cyperus difformis); experiment: Test E flooded paddy water application; assay type: in vivo; details: Flood, 21 days, scale 0 to 100 (0 no effect, 100 complete control); for Plant response rating, Sedge, Umbrella: 16 g ai/ha
Method in brief: as §1

[7] = test system: barnyardgrass (Echinochloa crus-galli); experiment: Test E flooded paddy water application; assay type: in vivo; details: Flood, 21 days, scale 0 to 100 (0 no effect, 100 complete control); for Plant response rating, Barnyardgrass: 16 g ai/ha
Method in brief: as §1

[8] = test system: rice flatsedge (Cyperus iria); experiment: Test E flooded paddy water application; assay type: in vivo; details: Flood, 21 days, scale 0 to 100 (0 no effect, 100 complete control); for Plant response rating, Flatsedge, Rice: 16 g ai/ha
Method in brief: as §1

[9] = test system: water seeded rice seedlings (Oryza sativa cv. ‘Japonica-M202’); experiment: Test E flooded paddy water application; assay type: in vivo; details: Flood, 21 days, scale 0 to 100 (0 no effect, 100 complete control); for Plant response rating, Rice, Water Seeded: 16 g ai/ha
Method in brief: as §1

[10] = test system: transplanted rice seedlings (Oryza sativa cv. ‘Japonica-M202’); experiment: Test E flooded paddy water application; assay type: in vivo; details: Flood, 21 days, scale 0 to 100 (0 no effect, 100 complete control); for Plant response rating, Rice, Transplanted: 16 g ai/ha
Method in brief: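 Response scored visually on a 0–100 scale (100 = complete control) at 21 days against untreated pots. Treatment was into paddy water 3 cm deep over silt loam, with plants at the 2.0–2.5-leaf stage, grown under 16-h light at 29.5/26.7 °C day/night.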

[11] = test system: bearded (brdd.) sprangletop (Leptochloa fusca ssp. fascicularis); experiment: Test E flooded paddy water application; assay type: in vivo; details: Flood, 21 days, scale 0 to 100 (0 no effect, 100 complete control); for Plant response rating, Sprangletop, Brdd.: 16 g ai/ha
Method in brief: as §1

[12] = test system: purple redstem (Ammannia coccinea); experiment: Test E flooded paddy water application; assay type: in vivo; details: Flood, 21 days, scale 0 to 100 (0 no effect, 100 complete control); for Plant response rating, Redstem: 16 g ai/ha
Method in brief: as §1

Nc1nc(C2CC2)nc(C(=O)OCc2ccccc2)c1Br [Compound 22, phenylmethyl 6-amino-5-bromo-2-cyclopropyl-4-pyrimidinecarboxylate]
95: Plant response rating, Ducksalad ([1]; 500 g ai/ha)
30: Plant response rating, Ducksalad ([1]; 62 g ai/ha)
90: Plant response rating, Ducksalad ([1]; 250 g ai/ha)
60: Plant response rating, Ducksalad ([1]; 125 g ai/ha)
129 to 131 °C: melting point

CCOC(=O)c1nc(C2CC2)nc(N)c1Br [Compound 1, ethyl 6-amino-5-bromo-2-cyclopropyl-4-pyrimidinecarboxylate]
107 to 108 °C: melting point
0: Plant response rating, Ducksalad ([1]; 62 g ai/ha) | Plant response rating, Ducksalad ([1]; 250 g ai/ha) | Plant response rating, Ducksalad ([1]; 500 g ai/ha)

COC(=O)c1nc(C2CC2)nc(N)c1Br [Compound 2, methyl 6-amino-5-bromo-2-cyclopropyl-4-pyrimidinecarboxylate]
148 to 150 °C: melting point
50: Plant response rating, Ducksalad ([1]; 62 g ai/ha)
95: Plant response rating, Ducksalad ([1]; 500 g ai/ha)
90: Plant response rating, Ducksalad ([1]; 250 g ai/ha)
70: Plant response rating, Ducksalad ([1]; 125 g ai/ha)

Nc1nc(-c2ccc(Br)cc2)nc(C(=O)O)c1Cl [Compound 95, 6-amino-2-(4-bromophenyl)-5-chloro-4-pyrimidinecarboxylic acid]
95: Sedge, Umbrella plant response rating ([6]; 32 g ai/ha) | Sedge, Umbrella plant response rating ([6]; 64 g ai/ha) | Sedge, Umbrella plant response rating ([6]; 125 g ai/ha) | Sedge, Umbrella plant response rating ([6]; 250 g ai/ha)
100: Ducksalad plant response rating ([2]; 32 g ai/ha) | Ducksalad plant response rating ([2]; 64 g ai/ha) | Ducksalad plant response rating ([2]; 125 g ai/ha) | Ducksalad plant response rating ([2]; 250 g ai/ha) | Plant response rating, Ducksalad [2]
15: Rice, Water Seeded plant response rating ([9]; 250 g ai/ha) | Rice, Transplanted plant response rating ([10]; 250 g ai/ha)
70: Redstem plant response rating ([12]; 125 g ai/ha)
30: Redstem plant response rating ([12]; 64 g ai/ha) | Plant response rating, Redstem [12]
80: Redstem plant response rating ([12]; 250 g ai/ha)
157 to 158 °C (dec.): melting point
0: Watergrass, Late plant response rating ([3]; 32 g ai/ha) | Watergrass, Late plant response rating ([3]; 64 g ai/ha) | Watergrass, Late plant response rating ([3]; 125 g ai/ha) | Watergrass, Late plant response rating ([3]; 250 g ai/ha) | Plant response rating, Watergrass, Late [3] | Junglerice plant response rating ([4]; 32 g ai/ha) | Junglerice plant response rating ([4]; 64 g ai/ha) | Junglerice plant response rating ([4]; 125 g ai/ha) | Junglerice plant response rating ([4]; 250 g ai/ha) | Plant response rating, Junglerice [4] | Watergrass, Early plant response rating ([5]; 32 g ai/ha) | Watergrass, Early plant response rating ([5]; 64 g ai/ha) | Watergrass, Early plant response rating ([5]; 125 g ai/ha) | Watergrass, Early plant response rating ([5]; 250 g ai/ha) | Plant response rating, Watergrass, Early [5] | Plant response rating, Sedge, Umbrella [6] | Barnyardgrass plant response rating ([7]; 32 g ai/ha) | Barnyardgrass plant response rating ([7]; 64 g ai/ha) | Barnyardgrass plant response rating ([7]; 125 g ai/ha) | Barnyardgrass plant response rating ([7]; 250 g ai/ha) | Plant response rating, Barnyardgrass [7] | Flatsedge, Rice plant response rating ([8]; 32 g ai/ha) | Flatsedge, Rice plant response rating ([8]; 64 g ai/ha) | Flatsedge, Rice plant response rating ([8]; 125 g ai/ha) | Flatsedge, Rice plant response rating ([8]; 250 g ai/ha) | Plant response rating, Flatsedge, Rice [8] | Rice, Water Seeded plant response rating ([9]; 32 g ai/ha) | Rice, Water Seeded plant response rating ([9]; 64 g ai/ha) | Rice, Water Seeded plant response rating ([9]; 125 g ai/ha) | Plant response rating, Rice, Water Seeded [9] | Rice, Transplanted plant response rating ([10]; 32 g ai/ha) | Rice, Transplanted plant response rating ([10]; 64 g ai/ha) | Rice, Transplanted plant response rating ([10]; 125 g ai/ha) | Plant response rating, Rice, Transplanted [10] | Sprangletop, Brdd. plant response rating ([11]; 32 g ai/ha) | Sprangletop, Brdd. plant response rating ([11]; 64 g ai/ha) | Sprangletop, Brdd. plant response rating ([11]; 125 g ai/ha) | Sprangletop, Brdd. plant response rating ([11]; 250 g ai/ha) | Plant response rating, Sprangletop, Brdd. [11]

CCOC(=O)c1nc(C2CC2)nc(N)c1Cl [Compound 4, ethyl 6-amino-5-chloro-2-cyclopropyl-4-pyrimidinecarboxylate]
70: Plant response rating, Ducksalad ([1]; 62 g ai/ha)
100: Plant response rating, Ducksalad ([1]; 500 g ai/ha)
87 to 89 °C: melting point
80: Plant response rating, Ducksalad ([1]; 125 g ai/ha)
90: Plant response rating, Ducksalad ([1]; 250 g ai/ha)

COC(=O)c1nc(-c2ccc(Br)cc2)nc(N)c1Cl [Compound 96, methyl 6-amino-2-(4-bromophenyl)-5-chloro-4-pyrimidinecarboxylate]
100: Ducksalad plant response rating ([2]; 32 g ai/ha) | Ducksalad plant response rating ([2]; 64 g ai/ha) | Ducksalad plant response rating ([2]; 125 g ai/ha) | Ducksalad plant response rating ([2]; 250 g ai/ha) | Plant response rating, Ducksalad [2] | Sedge, Umbrella plant response rating ([6]; 32 g ai/ha) | Sedge, Umbrella plant response rating ([6]; 64 g ai/ha) | Sedge, Umbrella plant response rating ([6]; 125 g ai/ha) | Sedge, Umbrella plant response rating ([6]; 250 g ai/ha) | Plant response rating, Sedge, Umbrella [6] | Flatsedge, Rice plant response rating ([8]; 32 g ai/ha) | Flatsedge, Rice plant response rating ([8]; 64 g ai/ha) | Flatsedge, Rice plant response rating ([8]; 125 g ai/ha) | Flatsedge, Rice plant response rating ([8]; 250 g ai/ha) | Plant response rating, Flatsedge, Rice [8] | Redstem plant response rating ([12]; 125 g ai/ha) | Redstem plant response rating ([12]; 250 g ai/ha)
85: Redstem plant response rating ([12]; 32 g ai/ha)
223 to 224 °C: melting point
0: Watergrass, Late plant response rating ([3]; 32 g ai/ha) | Watergrass, Late plant response rating ([3]; 64 g ai/ha) | Watergrass, Late plant response rating ([3]; 125 g ai/ha) | Watergrass, Late plant response rating ([3]; 250 g ai/ha) | Plant response rating, Watergrass, Late [3] | Junglerice plant response rating ([4]; 32 g ai/ha) | Junglerice plant response rating ([4]; 64 g ai/ha) | Junglerice plant response rating ([4]; 125 g ai/ha) | Junglerice plant response rating ([4]; 250 g ai/ha) | Plant response rating, Junglerice [4] | Watergrass, Early plant response rating ([5]; 32 g ai/ha) | Watergrass, Early plant response rating ([5]; 64 g ai/ha) | Watergrass, Early plant response rating ([5]; 125 g ai/ha) | Watergrass, Early plant response rating ([5]; 250 g ai/ha) | Plant response rating, Watergrass, Early [5] | Barnyardgrass plant response rating ([7]; 32 g ai/ha) | Barnyardgrass plant response rating ([7]; 64 g ai/ha) | Barnyardgrass plant response rating ([7]; 125 g ai/ha) | Barnyardgrass plant response rating ([7]; 250 g ai/ha) | Plant response rating, Barnyardgrass [7] | Rice, Water Seeded plant response rating ([9]; 32 g ai/ha) | Rice, Water Seeded plant response rating ([9]; 64 g ai/ha) | Plant response rating, Rice, Water Seeded [9] | Rice, Transplanted plant response rating ([10]; 32 g ai/ha) | Rice, Transplanted plant response rating ([10]; 64 g ai/ha) | Plant response rating, Rice, Transplanted [10] | Sprangletop, Brdd. plant response rating ([11]; 32 g ai/ha) | Sprangletop, Brdd. plant response rating ([11]; 64 g ai/ha) | Sprangletop, Brdd. plant response rating ([11]; 125 g ai/ha) | Sprangletop, Brdd. plant response rating ([11]; 250 g ai/ha) | Plant response rating, Sprangletop, Brdd. [11] | Plant response rating, Redstem [12]
90: Redstem plant response rating ([12]; 64 g ai/ha)
10: Rice, Water Seeded plant response rating ([9]; 125 g ai/ha) | Rice, Water Seeded plant response rating ([9]; 250 g ai/ha) | Rice, Transplanted plant response rating ([10]; 125 g ai/ha)
20: Rice, Transplanted plant response rating ([10]; 250 g ai/ha)
